# Measured values as given in patent US20120115869A1, “TETRAZOLE DERIVATIVES” (MERCK SERONO S.A., priority 2009, published 2012).
# Legend:
# CRTH2 (DP2) = target: T1, CRTH2 (DP2) (Homo sapiens, UniProt Q9Y5Y4); assay: Radioligand binding Scintillation Proximity Assay ([3H]PGD2, hCRTH2-CHO cell membranes); details: 1.5 nM [3H]PGD2, hCRTH2-CHO cell membranes, SPA
# T1 construct: host or cells: CHO cells
# T1 sequence (Q9Y5Y4 1-395): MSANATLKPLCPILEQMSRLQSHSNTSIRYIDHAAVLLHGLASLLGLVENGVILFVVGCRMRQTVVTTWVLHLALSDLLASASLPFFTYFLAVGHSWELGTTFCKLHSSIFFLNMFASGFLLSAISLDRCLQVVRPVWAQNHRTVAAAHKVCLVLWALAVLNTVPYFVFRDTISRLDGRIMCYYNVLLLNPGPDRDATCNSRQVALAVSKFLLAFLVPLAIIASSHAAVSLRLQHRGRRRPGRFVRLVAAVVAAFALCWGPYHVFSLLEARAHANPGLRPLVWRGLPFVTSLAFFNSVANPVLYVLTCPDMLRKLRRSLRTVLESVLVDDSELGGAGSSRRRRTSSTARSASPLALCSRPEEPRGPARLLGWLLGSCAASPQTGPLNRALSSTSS
# Method in brief: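 Membranes from CHO cells stably expressing human CRTH2, made by nitrogen cavitation and differential centrifugation. Compounds competed with [3H]PGD2 at 1% DMSO for 90 min with agitation at room temperature. Non-specific binding taken with 10 μM PGD2.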
# CRTH2 [1] = target: T2, CRTH2 (Homo sapiens, UniProt Q9Y5Y4); assay: Cellular Dielectric Spectroscopy in CHO-CRTH2 cells; type: cell-based; details: fixed concentration of PGD2 (EC80), read-out: IC50(μM) (CDS, antagonist)
# T2 construct: expressed in transfected cells; host or cells: CHO cells
# T2 sequence (Q9Y5Y4 1-395): T1 sequence (Q9Y5Y4 1-395)
# Description: Cellular Dielectric Spectroscopy (CDS) is a label-free technology based on the measurement of complex impedance changes (delta Z or dZ). Impedance (Z) is related to the ratio of voltage to current as described by Ohm's law (Z=V/I). In order to measure the changes in impedance that occur in response to receptor stimulation, mammalian cells are seeded onto a custom 96-well microtiter plate that contains electrodes at the bottom of each well Key contributors to the impedance measurements are changes in cell-substrate adherence, changes in cell shape and volume, and changes in cell-cell interactions. These factors individually or collectively affect the flow of current, influencing the magnitude and characteristics of the signal measured. G-protein coupled receptors ligand-induced activity can be measured using this technology and specific G protein coupling can be identified. Activities of reference agonist and antagonist molecules of CRTH2 have been measured using this assay and similar results were obtained compared to different functional assays.
# CHO—CRTH2 cells are cultured in HAM's F12 (Lonza, Switzerland) supplemented with 10% foetal calf serum (PAA, Australia) and 400 μg/ml Geneticin. 100000 cells/well are seeded in standard 96 W Microplates (MDS Analytical Technologies) and incubated at 37° C. in 5% CO2 for 24 hours. Cells are washed twice with 135 μl of cell key buffer (Hank's Balanced Salt Solution 1× (HBSS) (Invitrogen) supplemented with 10 mM HEPES pH 7.4 in presence of 1% DMSO). […] Results are expressed as the amplitude between the highest and the lowest signal produced (max-min). Basal and maximum activities are measured, respectively in absence or presence of PGD2 (EC80).
# [2] = tested on: eosinophils (PGD2-induced cell shape change); assay: PGD2-induced eosinophil cell shape assay in human whole blood; type: cell-based; details: 10 nM PGD2 final
# Description: The Compounds of Formula (I) were diluted in dimethylsulphoxide so that the total volume of dimethylsulfoxide was kept constant at 2% dimethylsulphoxide (Me2SO). Serial dilutions of 200 μM to 0.09 μM were prepared. Samples of 90 μl of human blood from healthy volunteers (Centre de Transfusion Sanguine de Genéve) were pre-incubated in polypropylene Falcon tubes (BD 352063) for 20 minutes in a water bath at 37° C. with 10 μl of diluted compounds. For CRTH2 activation, 100 μl PGD2 (Cayman 12010) at 20 nM was added (10 nM final) to each tube and cells were maintained at 37° C. For negative control cells were treated with PBS. After 10 minutes, cell activation was stopped with 120 μl Formaldehyde 10% (4% final, Fluka 41650) and cells were rested for 10 minutes at room temperature. Fixed cells were transferred into polypropylene tubes and then treated for 1 hour in a water bath at 37° C. with 2 ml of Triton-Surfact-Amps X-100 (Pierce 28314) at 0.166% (0.13% Triton final). After several washes with PBS (red cells lysed progressively during washes, two washes are necessary), cells were analyzed by flow cytometry on a FACSCalibur. In one embodiment, the compounds of Formula (I) of the present invention are capable of blocking the cell shape change of eosinophils induced by PGD2 in Whole Blood.
# CRTH2 [3] = target: T2, CRTH2; assay: [35S]GTPγS binding assay on CHO-CRTH2 cell membranes; type: biochemical; details: without addition of PGD2; 100% of Emax being the activity measured by the addition of 1 μM of PGD2
# Description: Adherent CHO cells expressing hCRTH2 (Euroscreen, Belgium) were cultured in 225 cm^2 cell culture flasks (Corning, USA) in 30 ml of medium. After two rinses of phosphate buffered saline (PBS), cells were harvested in 10 ml of PBS containing 1 mM EDTA, centrifuged at 500×g for 5 min at 4° C. and frozen at −80° C. The pellet was re-suspended in 50 mM Tris-HCl, pH 7.4, 2 mM EDTA, 250 mM Sucrose, containing protease inhibitor cocktail tablets, (Complete EDTA-free, Roche, Germany) and incubated 30 min at 4° C. Cells were disrupted by nitrogen cavitation (Parr Instruments, USA) at 4° C. (800 p.s.i. for 30 min), and centrifuged at 500×g for 10 min at 4° C. Pellet containing nuclei and cellular debris was discarded and supernatant was centrifuged 60 min at 4° C. at 45000×g. Membrane pellet was re-suspended in storage buffer (10 mM HEPES/KOH pH 7.4, 1 mM EDTA, 250 mM sucrose, protease inhibitor cocktail tablets) using Dounce homogenization and frozen in liquid nitrogen, and stored at 80° C.
# The [^35S]GTPγS assay measures the increase in guanine nucleotide exchange at G-proteins in cell membranes, resulting from agonist (PGD2) binding to CRTH2. […] Briefly, Compounds of Formula (I) are incubated in 96-well scintillating white polystyrene plates (Perkin Elmer, USA) in a final volume of 200 μl containing 20 mM HEPES/KOH pH 7.4, 3 mM MgCl2, 10 μg/ml Saponin, 5 μM GDP, 75 mM NaCl and 2% of dimethylsulphoxide (DMSO). […] After 60 min incubation at 30° C., reaction is stopped by centrifugation at 700×g, at 4° C. for 10 minutes and supernatant is removed. […] For IC50 determination, increasing concentrations of compounds are incubated in presence of a fixed concentration of PGD2 (EC80). For EC50 measurements, compounds are incubated without addition of PGD2. Basal [^35S]GTPγS activity is determined without addition of any ligands or compounds. 100% [^35S]GTPγS activity is measured by the addition of 1 μM of PGD2.
# [4] = In vivo pharmacokinetic evaluation in mouse; details: mice
# Description: In order to study the pharmacokinetic (PK) profile of test compounds in vivo, Sprague Dawley male rats or C57BL/6 female mice were dosed intravenously or after oral gavage. For both species, test compounds were dosed in solution at 1 mg/kg for i.v. route (10% ethanol, 10% N,N-dimethylacetamide, 30% propylene glycol, 50% water, v/v) and in suspension at 5 mg/kg (0.5% carboxymethylcellulose suspension, containing 0.25% Tween 20 in water) for oral gavage. PK profile in rat was obtained from 3 animals per dosing route and mouse PK profile was determined from 3 animals for each time points. The volume of administration was 2 mL/kg for i.v. dosing in both species and either 5 mL/kg (rat) or 10 mL/kg (mouse) for oral gavage. Blood samples (100 μL/time point) were collected at 0.083 (5 min), 0.25, 0.5, 1, 4, 7 and 24 hours post-dose for i.v. dosing, and at 0.5, 1, 4, 7 and 24 h for oral dosing, into heparin-Li+ containing tubes. For rats, all blood samples were collected trough a catheter in the carotid artery (placed in the artery the day before the experiment), under light isoflurane anesthesia, and stored on ice until centrifugation and plasma isolation. For mouse, blood samples were collected from intracardiac puncture at sacrifice at each time point and processed as described above for the rat. Plasma samples were stored frozen until analysis (−20° C. to −70° C.). For bioanalysis, samples were processed by protein precipitation (acetonitrile, formic acid 0.1%, addition of 3 volumes) after addition of one internal standard and analysed using a sensitive and selective LC/MS/MS method. An aliquot of the resulting supernatant was subject to LC/MS/MS analysis using a reverse phase column (Waters Xterra, C8, (3.5 μm particle size, 2.1×50 mm) and a short gradient (1 min) from (Solvent A) 85% water, 15% acetonitrile and 0.1% formic acid to (Solvent B) 90% acetonitrile, 10% water and 0.1% formic acid followed by isocratic conditions of Solvent B for 3.5 min at 0.4 mL/min. Column effluent was monitored using a Sciex API 4000 triple quadrupole mass spectrometer with a Turbo V electrospray ion source. Unknown concentrations of test compounds were determined using a calibration curve ranging from 1 to 3000 ng/mL.
Structure (SMILES),IC50 (CRTH2 (DP2)) [nM],IC50 [2] [µM],Emax (CRTH2 [3]) [%],other results
"CCCCC(=O)N(Cc1ccc2c(c1)OCCO2)c1cccc(-c2nnn[nH]2)c1 [Example 5, N-(2,3-dihydro-1,4-benzodioxin-6-ylmethyl)-N-[3-(1H-tetrazol-5-yl)phenyl]pentanamide]",8.8,0.536,–,IC50 (CRTH2 [1]): 0.076 µM
"CCCCC(=O)N(Cc1ccc(OC)cc1)c1cc(Cl)cc(-c2nnn[nH]2)c1 [Example 46, N-[3-chloro-5-(1H-tetrazol-5-yl)phenyl]-N-(4-methoxybenzyl)pentanamide]",4.2,0.245,-9.5,–
"CCC(=O)N(Cc1ccc(C(F)(F)F)cc1)c1cc(F)cc(-c2nnn[nH]2)c1 [Example 58, N-[3-fluoro-5-(1H-tetrazol-5-yl)phenyl]-N-[4-(trifluoromethyl)benzyl]propanamide]",7.1,0.102,-8.1,Clearance iv (1 mg/Kg) ([4]; i.v. 1 mg/Kg): 5 mL/min/kg; AUC po (5 mg/Kg) ([4]; oral gavage 5 mg/Kg): 11212 ng·h/mL; Oral bioavailability ([4]; po 5 mg/Kg vs iv 1 mg/Kg): 76%
"CCCCC(=O)N(Cc1cccc(OC)c1)c1cccc(-c2nnn[nH]2)c1 [Example 13, N-(3-methoxybenzyl)-N-[3-(1H-tetrazol-5-yl)phenyl]pentanamide]",53,0.914,–,–
"CCC(=O)N(Cc1ccc2c(c1)OCCO2)c1cc(-c2nnn[nH]2)ccc1F [Example 9, N-(2,3-dihydro-1,4-benzodioxin-6-ylmethyl)-N-[2-fluoro-5-(1H-tetrazol-5-yl)phenyl]propanamide]",15,1.17,–,–

# More lines, in order of falling IC50 (CRTH2 (DP2)), values ahead:
IC50 (CRTH2 (DP2)) [nM],IC50 [2] [µM],Emax (CRTH2 [3]) [%],Structure (SMILES),other results
24,0.082,-13,"CCC(=O)N(Cc1ccc(OC(F)(F)F)c(Cl)c1)c1cc(F)cc(-c2nnn[nH]2)c1 [Example 56, N-[3-chloro-4-(trifluoromethoxy)benzyl]-N-[3-fluoro-5-(1H-tetrazol-5-yl)phenyl]propanamide]","clearance ([4]; female, C57BL/6, mouse, plasma, iv, i.v. 1 mg/Kg): 15 mL/min/kg; AUC ([4]; female, C57BL/6, mouse, plasma, oral gavage 5 mg/Kg): 1910 ng·h/mL; bioavailability ([4]; female, C57BL/6, mouse, plasma, po 5 mg/Kg vs iv 1 mg/Kg): 36%"
15,0.233,–,"CCC(=O)N(Cc1ccc(OC(F)(F)F)cc1)c1cc(Cl)cc(-c2nnn[nH]2)c1 [Example 57, N-[3-chloro-5-(1H-tetrazol-5-yl)phenyl]-N-[4-(trifluoromethoxy)benzyl]propanamide]",melting point: 144 °C
2.3,0.039,-14.9,"CCCCC(=O)N(Cc1ccc2c(c1)OCCO2)c1cc(F)cc(-c2nnn[nH]2)c1 [Example 11, N-(2,3-dihydro-1,4-benzodioxin-6-ylmethyl)-N-[3-fluoro-5-(1H-tetrazol-5-yl)phenyl]pentanamide]",–
